Structures can show the parent of a compound that is named as a salt. Where two headings read alike, the source gives them in different places.
Assays:
[1] = system: IL-1β production in PMA-differentiated THP-1 cells; experiment: Measurement of IL-1β production in PMA-differentiated THP-1 cells (ELISA, 4 hours); assay type: cell-based, human; conditions: assayed using one or more of the described procedures, read-out: NLRP3 hIL1B IC50
Procedure, shortened: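 IL-1β released into supernatant was measured by ELISA after a 4-hour compound exposure (final DMSO 1%, concentrations such as 100 down to 0.1 μM). Cells: THP-1 pretreated 24 h with 10 μg/ml PMA, then trypsinized and seeded at 1×10^6/ml in 2% FBS RPMI.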

human TLR7 = target: T1, human TLR7 (Homo sapiens, UniProt Q9NYK1); experiment: In vitro human TLR7 binding reporter assay (HEK-Blue, NF-kB/AP1-inducible SEAP); assay type: cell-based; conditions: HEK-Blue human TLR7 SEAP reporter cells; activity range classes; read-out: TLR7 Agonist EC50
T1 construct: host or cells: human HEK-Blue cells (HEK293-derived) co-expressing TLR7 and an NF-kB/AP1-inducible SEAP reporter
T1 sequence (Q9NYK1 27-1049): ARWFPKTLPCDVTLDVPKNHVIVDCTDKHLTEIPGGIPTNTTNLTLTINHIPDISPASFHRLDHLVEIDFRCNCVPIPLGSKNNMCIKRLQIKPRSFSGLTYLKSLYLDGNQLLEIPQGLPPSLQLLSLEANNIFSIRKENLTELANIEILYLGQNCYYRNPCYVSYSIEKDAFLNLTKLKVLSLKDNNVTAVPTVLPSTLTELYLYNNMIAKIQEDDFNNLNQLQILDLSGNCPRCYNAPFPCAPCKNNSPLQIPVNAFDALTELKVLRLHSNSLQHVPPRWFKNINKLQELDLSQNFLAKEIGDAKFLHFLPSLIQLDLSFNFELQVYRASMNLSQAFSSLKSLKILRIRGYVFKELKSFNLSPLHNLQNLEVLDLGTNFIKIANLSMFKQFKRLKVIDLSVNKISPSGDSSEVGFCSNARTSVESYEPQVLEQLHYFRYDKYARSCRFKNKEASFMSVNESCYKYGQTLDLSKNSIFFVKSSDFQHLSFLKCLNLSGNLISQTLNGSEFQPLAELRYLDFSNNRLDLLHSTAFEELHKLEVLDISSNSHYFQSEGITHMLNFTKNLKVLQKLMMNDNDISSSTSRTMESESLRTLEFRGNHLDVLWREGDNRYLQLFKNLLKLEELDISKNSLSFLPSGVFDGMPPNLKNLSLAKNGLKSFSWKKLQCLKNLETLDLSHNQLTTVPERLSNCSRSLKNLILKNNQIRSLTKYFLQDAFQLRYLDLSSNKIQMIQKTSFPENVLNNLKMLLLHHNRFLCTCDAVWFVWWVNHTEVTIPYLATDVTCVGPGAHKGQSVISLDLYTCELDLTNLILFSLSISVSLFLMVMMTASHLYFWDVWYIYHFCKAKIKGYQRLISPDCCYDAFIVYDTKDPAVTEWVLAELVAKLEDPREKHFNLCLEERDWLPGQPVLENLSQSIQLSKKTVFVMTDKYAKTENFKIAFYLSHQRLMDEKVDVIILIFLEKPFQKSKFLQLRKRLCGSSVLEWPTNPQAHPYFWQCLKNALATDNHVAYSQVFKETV
Procedure, shortened: (§1)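 HEK-Blue cells expressing human TLR7 or TLR8 with NF-kB/AP1-inducible SEAP reporter, plated 24 h, then compound-treated 18 h at 37° C, 5% CO2. EC50 normalized to 100% Ymax set by 50 μM reference standard.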

human TLR8 = target: T2, human TLR8 (Homo sapiens, UniProt Q9NR97); experiment: In vitro human TLR8 binding reporter assay (HEK-Blue, NF-kB/AP1-inducible SEAP); assay type: cell-based; conditions: HEK-Blue human TLR8 SEAP reporter cells; activity range classes; read-out: TLR8 Agonist EC50
T2 construct: host or cells: human HEK-Blue cells (HEK293-derived) co-expressing TLR8 and an NF-kB/AP1-inducible SEAP reporter
T2 sequence (Q9NR97 27-1041): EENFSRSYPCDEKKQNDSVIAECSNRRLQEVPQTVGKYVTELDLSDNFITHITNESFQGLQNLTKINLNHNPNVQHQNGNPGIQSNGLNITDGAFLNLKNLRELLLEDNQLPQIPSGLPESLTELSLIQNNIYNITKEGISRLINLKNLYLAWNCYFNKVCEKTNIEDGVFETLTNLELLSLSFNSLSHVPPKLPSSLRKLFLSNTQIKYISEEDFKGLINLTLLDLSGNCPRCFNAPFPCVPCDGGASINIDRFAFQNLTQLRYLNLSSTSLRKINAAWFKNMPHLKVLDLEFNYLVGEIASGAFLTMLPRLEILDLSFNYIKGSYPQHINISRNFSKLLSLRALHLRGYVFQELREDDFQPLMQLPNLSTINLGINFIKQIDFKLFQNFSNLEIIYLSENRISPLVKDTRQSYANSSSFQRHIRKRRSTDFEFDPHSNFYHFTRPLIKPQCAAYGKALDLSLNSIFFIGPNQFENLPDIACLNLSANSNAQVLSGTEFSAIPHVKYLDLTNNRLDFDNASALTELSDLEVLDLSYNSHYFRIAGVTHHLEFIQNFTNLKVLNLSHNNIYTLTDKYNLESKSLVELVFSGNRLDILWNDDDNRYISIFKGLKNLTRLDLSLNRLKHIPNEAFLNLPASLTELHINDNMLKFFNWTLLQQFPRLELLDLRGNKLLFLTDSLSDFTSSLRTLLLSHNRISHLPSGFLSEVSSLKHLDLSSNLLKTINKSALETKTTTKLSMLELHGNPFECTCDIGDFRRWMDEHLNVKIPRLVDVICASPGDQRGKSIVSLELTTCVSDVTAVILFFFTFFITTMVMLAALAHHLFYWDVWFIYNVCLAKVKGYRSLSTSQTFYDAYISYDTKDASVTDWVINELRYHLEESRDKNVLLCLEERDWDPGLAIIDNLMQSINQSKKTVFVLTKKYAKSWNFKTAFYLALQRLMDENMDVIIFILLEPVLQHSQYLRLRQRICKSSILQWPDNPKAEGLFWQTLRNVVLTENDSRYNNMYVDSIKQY
Procedure, shortened: as §1

[2] = Homo sapiens, THP-1, human IL-1β production

| SMILES | IC50 [1, 2] | EC50 (human TLR7) | EC50 (human TLR8) | IC50 ([1]; human IL-1β production) |
| --- | --- | --- | --- | --- |
| Nc1cc(N2CCCNCC2)c2ccc(-c3cc[nH]n3)cc2n1 [Compound 286] | 13.1 µM | > 100 µM | > 100 µM | – |
| CCNC(=O)NCCNc1cc(N)nc2cc(-c3ccn[nH]3)ccc12 [Compound 207, 1-(2-((2-amino-7-(1H-pyrazol-5-yl)quinolin-4-yl)amino)ethyl)-3-ethylurea, TFA] | 1.07 µM | > 100 µM | > 100 µM | – |
| Nc1cc(NCc2ccccn2)c2ccc(-n3cccn3)cc2n1 [Compound 300] | 0.54 µM | > 100 µM | > 100 µM | – |
| Nc1cc(N[C@H]2CCCC[C@H]2O)c2ccc(-c3ccn[nH]3)cc2n1 (racemic) [Compound 157] | – | > 100 µM | > 100 µM | 0.73 µM |
| Nc1cc(OC[C@H](O)CN2CCOCC2)c2ccc(-c3ccn[nH]3)cc2n1 [Compound 349, (R)-1-((2-amino-7-(1H-pyrazol-5-yl)quinolin-4-yl)oxy)-3-morpholinopropan-2-ol] | 5.8 µM | > 100 µM | > 100 µM | – |
| Nc1cc(NC2CCCOC2)c2ccc(-c3ccn[nH]3)cc2n1 (stereo not drawn) [Compound 279] | 0.33 µM | > 100 µM | > 100 µM | – |
| CNC(=O)CCNc1cc(N)nc2cc(-n3cccn3)ccc12 [Compound 174] | 0.82 µM | > 100 µM | > 100 µM | – |
| Cc1cc2c(NCCCO)cc(N)nc2cc1-c1ccn[nH]1 [Compound 319] | 25.7 µM | > 100 µM | > 100 µM | – |
| Nc1cc(NC(CO)CO)c2ccc(-c3ccn[nH]3)cc2n1 [Compound 315, 2-((2-amino-7-(1H-pyrazol-5-yl)quinolin-4-yl)amino)propane-1,3-diol] | 1.52 µM | > 100 µM | > 100 µM | – |
| Nc1cc(OCCc2ccsc2)c2ccc(-c3ccsc3)cc2n1 [Compound 331] | 14.6 µM | > 100 µM | > 100 µM | – |
| COCC(O)CNc1cc(N)nc2cc(-c3ccn[nH]3)ccc12 (stereo not drawn) [Compound 254] | 0.21 µM | > 100 µM | > 100 µM | – |
| Nc1cc(NCC2CCOCC2)c2ccc(-c3ccn[nH]3)cc2n1 [Compound 137] | 0.55 µM | > 100 µM | > 100 µM | – |
| Nc1cc(NCCc2cccnn2)c2ccc(-c3cccs3)cc2n1 [Compound 342, N4-(2-(pyridazin-3-yl)ethyl)-7-(thiophen-2-yl)quinolin-2,4-diamine] | 1.1 µM | > 100 µM | > 100 µM | – |
| Nc1cc(NCCO)c2ccc(-c3cc[nH]n3)cc2n1 [Compound 169] | 1.37 µM | > 100 µM | > 100 µM | – |
| Nc1cc(NCC2CCNC2)c2ccc(-c3ccn[nH]3)cc2n1 (stereo not drawn) [Compound 327] | 4.66 µM | > 100 µM | > 100 µM | – |
| Nc1cc(N[C@@H]2CCC[C@@H]2O)c2ccc(-c3ccn[nH]3)cc2n1 [Compound 232] | 0.23 µM | > 100 µM | > 100 µM | – |
| CC(=O)NCCNc1cc(N)nc2cc(-n3cccn3)ccc12 [Compound 306] | 1.1 µM | > 100 µM | > 100 µM | – |
| CC(=O)N[C@H]1CCN(c2cc(N)nc3cc(-c4ccn[nH]4)ccc23)C1 [Compound 158] | 35.8 µM | > 100 µM | > 100 µM | – |

Results, then the compound that gave them:

| IC50 [1, 2] | EC50 (human TLR7) | EC50 (human TLR8) | IC50 ([1]; human IL-1β production) | SMILES |
| --- | --- | --- | --- | --- |
| 2.29 µM | > 100 µM | > 100 µM | – | COc1cccc(C(C)Nc2cc(N)nc3cc(-c4ccn[nH]4)ccc23)n1 (stereo not drawn) [Compound 129, N4-(1-(6-methoxypyridin-2-yl)ethyl)-7-(1H-pyrazol-5-yl)quinoline-2,4-diamine] |
| 0.19 µM | > 100 µM | > 100 µM | – | Cc1nc(C(=O)NCCNc2cc(N)nc3cc(-c4ccn[nH]4)ccc23)cs1 [Compound 203, N-(2-((2-amino-7-(1H-pyrazol-5-yl)quinolin-4-yl)amino)ethyl)-2-methylthiazole-4-carboxamide] |
| 0.36 µM | > 100 µM | > 100 µM | – | Nc1cc(N2CC(F)(F)C2)c2ccc(-c3ccn[nH]3)cc2n1 [Compound 271] |
| 7.26 µM | > 100 µM | > 100 µM | – | Nc1cc(-c2cnn(CCO)c2)c2ccc(-c3ccn[nH]3)cc2n1 [Compound 348, 2-(4-(2-amino-7-(1H-pyrazol-5-yl)quinolin-4-yl)-1H-pyrazol-1-yl)ethan-1-ol] |
| 0.09 µM | > 100 µM | > 100 µM | – | Cn1ccc(CNc2cc(N)nc3cc(-c4ccn[nH]4)ccc23)n1 [Compound 229] |
| 0.12 µM | > 100 µM | > 100 µM | – | Nc1cc(NCCn2cccn2)c2ccc(-c3ccn[nH]3)cc2n1 [Compound 262] |
| 5.81 µM | > 100 µM | > 100 µM | – | Nc1cc(N2CC[C@@H](O)C2)c2ccc(-c3ccn[nH]3)cc2n1 [Compound 143] |
| 0.22 µM | > 100 µM | > 100 µM | – | Nc1cc(NCCc2ncn[nH]2)c2ccc(-c3ccn[nH]3)cc2n1 [Compound 224] |
| 1.73 µM | > 100 µM | > 100 µM | – | CN(C)C1CCN(Cc2cc3ccc(-c4ccn[nH]4)cc3nc2N)CC1 [Compound 118] |
| 1.84 µM | > 100 µM | > 100 µM | – | CS(=O)(=O)Nc1ccc(CNc2cc(N)nc3cc(-c4ccn[nH]4)ccc23)cc1 [Compound 258] |
| 1.15 µM | > 100 µM | > 100 µM | – | Nc1nc2cc(-c3ccn[nH]3)ccc2cc1-c1ccc2[nH]ncc2c1 [Compound 127] |
| 0.48 µM | > 100 µM | > 100 µM | – | Nc1cc(-c2ccn[nH]2)c2ccc(-c3ccn[nH]3)cc2n1 [Compound 339, 4,7-di(1H-pyrazol-5-yl)quinolin-2-amine, HCl] |
| 4.83 µM | > 100 µM | > 100 µM | – | Cc1ncsc1CCNc1cc(N)nc2cc(-c3ccn[nH]3)ccc12 [Compound 239] |
| 1.69 µM | > 100 µM | > 100 µM | – | COCCCOc1cc(N)nc2cc(-c3ccn[nH]3)ccc12 [Compound 193] |
| 4.07 µM | > 100 µM | > 100 µM | – | Nc1cc(NCCNC(=O)c2ccccc2)c2ccc(-c3ccn[nH]3)cc2n1 [Compound 146] |
